Experimental data from article PMC7938888, “Antidepressant drugs act by directly binding to TRKB neurotrophin receptors” (Cell, 2021).
Entries after “also recorded” stand apart in the source; their conditions may differ.

B1: BDNF: brain-derived neurotrophic factor, TRKB ligand (protein, UniProt P23560 19-247, looked up)
Neurotrophic factor BDNF …: APMKEANIRGQGGLAYPGVRTHGTLESVNGPKAGSRGLTSLADTFEHVIEELLDEDQKVRPNEENNKDADLYTSRVMLSSQVPLEPPLLFLLEEYKNYLDAANMSMRVRRHSDPARRGELSVCDSISEWVTAADKKTAVDMSGGTVTVLEKVPVSKGQLKQYFYETKCNPMGYTKEGCRGIDKRHWNSQCRTTQSYVRALTMDSKKRIGWRFIRIDTSCVCTLTIKRGR

Key:
GFP-TRKB.Y433F = experiment: dSTORM/TIRF of GFP-TRKB.Y433F clusters on MG87.TRKB cells; format: cell-based, mouse; settings: BDNF 10 ng/ml, FLX 10 μM, CHOL 20 μM, KET 10 μM; 15 min
Description: (§1) For direct stochastic optical reconstruction microscopy (dSTORM) MG87.TRKB cells were grown on cell view 35mm dishes with glass bottom (Greiner) coated with poly-L-lysine (Sigma). […] Briefly, cells were fixed 24 hours post transfection with 4% PFA for 20 minutes, washed three times for 5 min with 1x PBS and incubated in blocking buffer (1% BSA, 0.1% gelatin, 5% goat serum, 0.1% Triton X-100 and 0.05% Tween-20 in PBS; all from Sigma) for 1 hour. The primary antibody against GFP (Abcam, #ab290) was diluted 1:100 and incubated overnight at +4°C, while the secondary antibody Alexa Fluor-conjugated goat-anti-rabbit 647 (Invitrogen) was diluted 1:500 and incubated at room temperature for 1 hour. The dishes were stored in +4°C in 1x PBS no longer than 48 hours before imaging.
(§2) During imaging, cells were maintained in blinking buffer (10% glucose, 0.07% cysteamine, 0.75 mg/ml glucose oxidase and 0.04 mg/ml catalase in 0.1 M Tris buffer, pH 7.8-8; all reagents from Sigma-Aldrich), which was freshly prepared and changed every hour. Imaging was performed in TIRF mode (TIRF angle 89.3 calibrated with ring-TIRF at least twice per sample) to specifically image the fluorophores at the plasma membrane. A GE DeltaVision OMX SR system (GE Healthcare) equipped with an Apo N 60x/1.49 oil objective and a sCMOS camera was used to acquire the images. The 640 nm diode laser was used at 100% of power to excite the Alexa 647 fluorophores while the 405 nm laser was adjusted until approximately 50% of power in order to maintain the blinking throughout the imaging session. For each cell, 35000 frames were acquired, and the localization map of single fluorophores was reconstructed with SoftWoRx 7.0 software (GE Healthcare). For the localization map, the first 1000 frames approximately were discarded and the reconstruction parameters were maintained identical for all the samples.
(§3) Reconstruction parameters: For the localization of all the blinking events in the dataset, the point spread function size factor was set at 1.550 with a local maximum factor of 0.05. Drift correction was adjusted dividing the frames into 20 groups. Tracking of the fluorophores was performed with a maximum localization precision of 100 nm without fiducial markers. The final localization map of the fluorophores identified was built with a reconstruction pixel size of 10 nm and localization precision set at 5 and 100 nm respectively for the minimum and the maximum, and a fluorophore persistence threshold set at 3 frames.
(§4) The analysis of the reconstructed images was performed in Fiji. Depending on the size of picture, 5 or 10 representative regions of interest (ROIs) of 2x1 μm were blindly chosen per cell and used for particle analysis of the TRKB-positive clusters. […]

[1] = test system: TRKB autophosphorylation (TRKB:pY); experiment: TRKB:pY ELISA in cultured cortical cells; format: cell-based, rat; settings: for effect on TRKB phosphorylation (pTRKB) by BDNF: BDNF 10 ng/mL, primary cortical neurons
Description: (§5) The TRKB:pY (phosphorylated TRKB), TRKB:PLC-γ1, PLC-γ1:pTRKB.Y816 interactions and were determined by ELISA, based on the general method described in literature ([Antila et al., 2014]; [Fred et al., 2019]), with minor adjustments. Briefly, white 96-well plates (OptiPlate 96F-HB, Perkin Elmer) were coated with capturing anti-TRKB or PLC-γ1 antibody (1:1000) in carbonate buffer (pH = 9.8) overnight (ON) at 4°C. Following a blocking step with 2%BSA in TBS-T (2 h, RT), samples were incubated ON at 4°C. The incubation with antibody against pTRKB.Y816, PLC-γ1 or pY (1:2000, ON, 4°C) was followed by HRP-conjugated anti-Rb IgG (1:5000, 2h, RT) or HRP-conjugated streptavidin (1:10000, 2h, RT). Finally, the chemiluminescent signal generated by the reaction with ECL was analyzed in a plate reader (Varioskan Flash, Thermo Scientific).

GFP-TRKB = experiment: dSTORM/TIRF of GFP-TRKB clusters on MG87.TRKB cells; format: cell-based, mouse; settings: BDNF 10 ng/ml, FLX 10 μM, CHOL 20 μM, KET 10 μM; 15 min
Description: as §1, §2, §3, §4

E18 cortical cells = experiment: Cell viability (CellTiterGlo) of cortical cells; format: cell-based, rat; settings: pravastatin 2 μM/5 days; CHOL 20 μM or BDNF 10 ng/ml, 5 days
Description: The cell viability assay was performed using CellTiterGlo (#G7571; Promega) according to manufacturer’s instructions. Briefly, equal amounts of medium and the mixture of regents A and B were added to the E18 cortical cells (DIV8) cultivated in clear bottom 96-well plates and incubated for 40min. The luminescence was analyzed in a plate reader.

TRKA:PLC-γ1 coupling = experiment: TRKA:PLC-γ1 interaction ELISA in MG87 cells expressing TRKA; format: cell-based, mouse
pTRKB.Y816 = format: cell-based, rat; settings: 10 μM/15 min
Description: as §5
The levels of total and phosphorylated TRKB at Y515 or Y816 in MG87.TRKB cells, challenged with BDNF, as well as the levels of PLCg1 and pTRKB.Y816 were measured by western-blotting ([Rantamäki et al., 2007]).

TRKB/TRKA.TM = experiment: Cell-free ligand binding assay, chimeric TRKB with TMD of TRKA; settings: biotinylated fluoxetine
mice [2] = experiment: Contextual fear conditioning and extinction; format: in vivo, mouse
Description: Contextual fear conditioning: this test was modified from previous studies ([Karpova et al., 2011]). Briefly, adult male and female mice (18-22 weeks old) were conditioned to 5 scrambled foot shocks (0.6mA/2 s) during the 8 min session (arena: 23 × 23 × 35cm) under constant illumination (100 lux). During the extinction trials, the animals were exposed to the same context where the shocks were delivered and the time spent in freezing during the 8 min session was automatically determined by the software (TSE Systems, Germany).

TRKB:PLC-γ1 interaction = TRKB:PLC-γ1 interaction ELISA in cortical cells; format: cell-based, rat; settings: rat cortical cells
How it was run: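 Sandwich ELISA on cultured cortical cell lysates: plates coated with anti-TRKB or anti-PLC-γ1 capture antibody, samples bound overnight at 4°C, then detected with anti-pY or anti-PLC-γ1 antibody plus HRP-conjugated secondary or streptavidin. Read-out is ECL chemiluminescence.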

TRKB.T1ΔEC = experiment: Cell-free ligand binding assay, TRKB deletion construct; settings: construct with TMD and short juxtamembrane sequences only
mice [3] = experiment: Forced swimming test (FST); format: in vivo, mouse; settings: FLX 15 mg/kg for 21 days, KET 10 mg/kg i.p. 2 h before
Description: Forced swimming test: animals (adult male and female mice, 18-22 weeks old) were placed in 5l glass beaker cylinders (19cm diameter, with 20cm water column) for 6min. The immobility was assessed in the last 4min of the session ([Diniz et al., 2018]). The water was changed between each test. After swimming, animals were towel-dried and kept in a warmed cage before returning to their home cages. Test was videotaped and analyzed by a trained observer blind to treatment.

[4] = wild-type mice, FLX 15 mg/kg for 2 weeks, KET 10 mg/kg i.p. after conditioning and 2 h before each extinction trial

| Molecule | size of clusters of GFP-TRKB.Y433F at the plasma membrane (GFP-TRKB.Y433F) | effect on TRKB phosphorylation (pTRKB) by BDNF ([1]; CHOL 20 μM) | effect on TRKB phosphorylation (pTRKB) by BDNF ([1]; CHOL 50–100 μM) | size of clusters formed by wild-type GFP-TRKB at the plasma membrane (GFP-TRKB) | rescue of pravastatin-reduced neuronal survival (E18 cortical cells) | cholesterol-induced TRKA:PLC-γ1 coupling (TRKA:PLC-γ1 coupling) | pTRKB at Y816 (pTRKB.Y816) | binding to chimeric TRKB with the TMD of TRKA (TRKB/TRKA.TM) | rescue of BDNF-induced pTRKB response under high CHOL ([1]; cholesterol 50 μM, drug 10 μM 15 min, BDNF 10 ng/ml 15 min) | extinction of conditioned fear (mice [2]; TRKB.Y433F mice) | extinction of conditioned fear (mice [2]; pravastatin-FLX co-treated mice) | extinction of conditioned fear (mice [2]; [4]) | TRKB interaction with PLC-γ1 (TRKB:PLC-γ1 interaction) | binding to TRKB.T1ΔEC (TRKB.T1ΔEC) | immobility in the FST (mice [3]; TRKB.Y433F mice) | immobility in the FST (mice [3]; wild-type mice) |
| --- | --- | --- | --- | --- | --- | --- | --- | --- | --- | --- | --- | --- | --- | --- | --- | --- |
| CC(C)CCC[C@@H](C)[C@H]1CC[C@H]2[C@@H]3CC=C4C[C@@H](O)CC[C@]4(C)[C@H]3CC[C@]12C [CHOL, cholesterol] | not clusters of GFP-TRKB.Y433F mutants | enhanced TRKB phosphorylation | suppressed the effects of BDNF | increased the size of clusters | rescued | Lack of effect |  |  |  |  |  |  |  |  |  |  |
| CNCCC(Oc1ccc(C(F)(F)F)cc1)c1ccccc1 (centres unmarked) [FLX, fluoxetine] | not clusters of GFP-TRKB.Y433F mutants |  |  | increased the size of clusters |  |  | enhanced pTRKB at Y816 | failed to bind; also recorded: very low | partially rescued | no increase in fear extinction | no increase in fear extinction | promoted extinction of conditioned fear | increased TRKB interaction with PLC-γ1 | robust binding | ineffective | significantly reduced immobility |
| CNC1(c2ccccc2Cl)CCCCC1=O (centres unmarked) [KET, ketamine] | not clusters of GFP-TRKB.Y433F mutants |  |  | increased the size of clusters |  |  | enhanced pTRKB at Y816 |  |  | no increase in fear extinction |  | promoted extinction of conditioned fear | increased TRKB interaction with PLC-γ1 |  | ineffective | significantly reduced immobility |
| B1 | not clusters of GFP-TRKB.Y433F mutants |  |  | increased the size of clusters | not by BDNF |  |  |  |  |  |  |  |  |  |  |  |
